According to PMC8589421, “Impact of Type II LRRK2 inhibitors on signaling and mitophagy” (Biochemical Journal, 2021):
Where two headings read alike, the source gives them in different places.

What was measured:
[1] = system: mouse embryonic fibroblast cells (MEFs); assay: Cell morphology and attachment of MEFs; format: cell-based
[2] = system: Dundee panel of 140 protein kinases; assay: Kinase profiling; format: biochemical
Description: […] Results for each kinase are presented as the mean kinase activity ±S.D. for an assay undertaken in duplicate relative to a control kinase assay in which the inhibitor was omitted. Abbreviations and assay conditions used for each kinase are available (http://www.kinase-screen.mrc.ac.uk/services/premier-screen).

LRRK2 at Ser935 = assay: LRRK2 Ser935 phospho-immunoblot in wild-type MEFs; format: cell-based, mouse; details: MEFs, 2 h dose response
Description: (§1) Wild-type and homozygous LRRK2 [R1441C] […] All cells were grown at 37°C, 5% (by vol) CO2 in a humidified atmosphere and regularly tested for mycoplasma contamination.
(§2) Inhibitors were dissolved in dimethyl sulfoxide (DMSO) (Sigma, #D2650). The inhibitors were diluted 1000× into cell medium. The equivalent volume of DMSO was added to the minus inhibitor controls. Experiments were performed in six-well plates, 10 cm dishes or 15 cm dishes depending on the amount of cell extract required.
(§3) Lysates were incubated on ice for 30 min and clarified by centrifugation at 20 800×g at 4°C for 20 min. Supernatants were quantified by Bradford assay (Bio-Rad Protein Assay Dye Reagent Concentrate #5000006) and samples prepared in 1× lithium dodecyl sulfate sample buffer final concentration (NuPage LDS Sample buffer 4× Invitrogen, #NP0008). When not deployed immediately, lysates were snap-frozen in liquid nitrogen and stored at −80°C until use.
(§4) Cell extracts were mixed with a quarter of a volume of NuPage LDS Sample buffer 4× Invitrogen and heated at 95°C for 5 min. […] At the end of electrophoresis, proteins were electrophoretically transferred onto the nitrocellulose membrane (GE Healthcare, Amersham Protran Supported 0.45 µm NC) at 100 V for 90 min on ice in the transfer buffer (48 mM Tris–HCl and 39 mM glycine supplemented with 20% methanol). Transferred membrane was blocked with 5% (w/v) skim milk powder dissolved in TBS-T [20 mM Tris–HCl, pH 7.5, 150 mM NaCl and 0.1% (v/v) Tween 20] at room temperature for 1 h. The membrane was typically cropped into three pieces, namely the ‘top piece’ (from the top of the membrane to 75 kDa), the ‘middle piece’ (between 75 and 30 kDa) and the ‘bottom piece’ (from 30 kDa to the bottom of the membrane). All primary antibodies were used at 1 μg/ml final concentration and incubated in TBS-T containing 5% (by mass) bovine serum albumin with exception of α-tubulin and GAPDH antibodies that were diluted 1 : 5000 and 1 : 2000, respectively. The top piece was incubated with the indicated rabbit anti-LRRK2 phosphorylation site antibody multiplexed with mouse anti-LRRK2 C-terminus total antibody. The middle piece was incubated with mouse anti-GAPDH or anti-α-tubulin antibody. The bottom pieces were incubated with indicated total and phospho-Rab antibodies. Membranes were incubated in primary antibody overnight at 4°C. Prior to secondary antibody incubation, membranes were washed three times with TBS-T for 10 min each. […] Membranes were washed with TBS-T for three times with a 10 min incubation for each wash. Protein bands were acquired via near infrared fluorescent detection using the Odyssey CLx imaging system and quantified using the Image Studio software.

[3] = system: LRRK2 mediated phosphorylation of Rab10 at Thr73; assay: Rab10 Thr73 phospho-immunoblot in wild-type MEFs; format: cell-based, mouse; details: Mus musculus, 2 h
Description: as §1, §2, §3, §4

[4] = system: Rab10 pThr73, LRRK2 [G2019S]; assay: Rab10 Thr73 phospho-immunoblot in LRRK2[G2019S] knock-in MEFs; format: cell-based, mouse; details: Mus musculus, 2 h, read-out: LRRK2 [G2019S] Rab10 pThr73 IC50
Description: (§5) Wild-type and homozygous LRRK2 [R1441C] (Jax, stock number: 009346), LRRK2[G2019S] Taconic, (model 13940) and LRRK2 [A2016T] (Jax, stock number: 021828)[7] knock-in MEF cells were isolated from littermate-matched mouse embryos on a C57BL/6J background at day E12.5 as described previously. MEFs were grown in Dulbecco's modified Eagle medium (DMEM GIBCO, #11960-085) containing 10% (by vol) fetal bovine serum (FBS), 2 mM L-glutamine, 100 U/ml penicillin, and […] streptomycin supplemented with non-essential amino acids and 1 mM sodium pyruvate. Human embryonic kidney 293 (HEK293) (#ATCC CRL-1573) and HeLa (#ATCC CCL-2) cells were purchased from American Tissue Culture Collection (ATCC) and cultured in DMEM containing 10% (by vol) FBS, 2 mM L-glutamine, 100 U/ml penicillin, and […] streptomycin. All cells were grown at 37°C, 5% (by vol) CO2 in a humidified atmosphere and regularly tested for mycoplasma contamination.
as §2
(§6) Cells were lysed in an ice-cold lysis buffer containing 50 mM Tris–HCl, pH 7.4, 1% (by vol) Triton X-100, 10% (by vol) glycerol, 150 mM NaCl, 1 mM sodium orthovanadate, 50 mM NaF, 10 mM 2-glycerophosphate, 5 mM sodium pyrophosphate, 1 µg/ml microcystin-LR, and cOmplete EDTA-free protease inhibitor cocktail (Roche, #11836170001). Lysates were incubated on ice for 30 min and clarified by centrifugation at 20 800×g at 4°C for 20 min. Supernatants were quantified by Bradford assay (Bio-Rad Protein Assay Dye Reagent Concentrate #5000006) and samples prepared in 1× lithium dodecyl sulfate sample buffer final concentration (NuPage LDS Sample buffer 4× Invitrogen, #NP0008). When not deployed immediately, lysates were snap-frozen in liquid nitrogen and stored at −80°C until use. […]

[5] = system: Rab10 phosphorylation, LRRK2[A2016T]; assay: Rab10 Thr73 phospho-immunoblot in inhibitor resistant LRRK2[A2016T] knock-in MEFs; format: cell-based, mouse; details: 2 h, up to 3 µM
Description: as §5, §2, §6

[6] = system: Rab10 pThr73, LRRK2 [R1441C]; assay: Rab10 Thr73 phospho-immunoblot in LRRK2[R1441C] knock-in MEFs; format: cell-based, mouse; details: Mus musculus, 2 h, read-out: LRRK2 [R1441C] Rab10 pThr73 IC50
Description: as §5, §2, §6

[7] = system: LRRK2 Ser935 phosphorylation, LRRK2[R1441C]; assay: LRRK2 Ser935 phospho-immunoblot in LRRK2[R1441C] knock-in MEFs; format: cell-based, mouse; details: dose and time dependent
Description: as §5, §2
Cells were lysed in an ice-cold lysis buffer containing 50 mM Tris–HCl, pH 7.4, 1% (by vol) Triton X-100, 10% (by vol) glycerol, 150 mM NaCl, 1 mM sodium orthovanadate, 50 mM NaF, 10 mM 2-glycerophosphate, 5 mM sodium pyrophosphate, 1 µg/ml microcystin-LR, and cOmplete EDTA-free protease inhibitor cocktail (Roche, #11836170001). Lysates were incubated on ice for 30 min and clarified by centrifugation at 20 800×g at 4°C for 20 min. Supernatants were quantified by Bradford assay (Bio-Rad Protein Assay Dye Reagent Concentrate #5000006) and samples prepared in 1× lithium dodecyl sulfate sample buffer final concentration (NuPage LDS Sample buffer 4× Invitrogen, #NP0008). When not deployed immediately, lysates were snap-frozen in liquid nitrogen and stored at −80°C until use.
Cell extracts were mixed with a quarter of a volume of NuPage LDS Sample buffer 4× Invitrogen and heated at 95°C for 5 min. […] At the end of electrophoresis, proteins were electrophoretically transferred onto the nitrocellulose membrane (GE Healthcare, Amersham Protran Supported 0.45 µm NC) at 100 V for 90 min on ice in the transfer buffer (48 mM Tris–HCl and 39 mM glycine supplemented with 20% methanol). Transferred membrane was blocked with 5% (w/v) skim milk powder dissolved in TBS-T [20 mM Tris–HCl, pH 7.5, 150 mM NaCl and 0.1% (v/v) Tween 20] at room temperature for 1 h. […]

Row | Structure (SMILES) | concentration that impacted cell morphology and attachment [1] | number of the 140 kinases assayed suppressed by over 80% ([2]; 0.1 μM inhibitor) | number of the 140 kinases assayed suppressed by over 80% ([2]; 1 μM inhibitor) | effect on LRRK2 Ser935 phosphorylation (LRRK2 at Ser935) | inhibition at 10 µM ([3]; wild-type MEFs, 10 μM) [%] | IC50 [4] [µM] | effect of A2016T mutation on inhibition of Rab10 phosphorylation [5] | IC50 [6] [µM] | IC50 ([3]; read-out: LRRK2 WT Rab10 pThr73 IC50, wild type MEFs littermate matched to LRRK2[G2019S], 2 h, panel (B)) [µM] | IC50 ([3]; read-out: LRRK2 WT Rab10 pThr73 IC50, wild type MEFs littermate matched to LRRK2[R1441C], 2 h, panel (A)) [µM] | effect on Ser935 phosphorylation in LRRK2[R1441C] knock-in cells [7]
1 | Cc1ccc(C(=O)Nc2ccc(CN3CCN(C)CC3)c(C(F)(F)F)c2)cc1C#Cc1cnc2cccnn12 [Ponatinib] | above 10 μM | 14 | 20 | without affecting Ser935 phosphorylation | ~50 | – | – | – | – | – | –
2 | CNC(=O)c1cc(Oc2ccc(NC(=O)Nc3cc(C(C)(C)C)nn3-c3ccc4ncccc4c3)c(F)c2)ccn1 [Rebastinib] | – | – | 18 | did not induce dephosphorylation of Ser935 | – | 1.07 | markedly blocked | 1.31 | 0.478 | 0.539 | rescue Ser935 phosphorylation
3 | C[C@@H]1CN(c2cc(-c3n[nH]c4ccc(OC5(C)CC5)cc34)ncn2)C[C@H](C)O1 [MLi-2] | – | – | – | complete dephosphorylation | – | – | markedly suppressed inhibition of Rab10 phosphorylation | – | – | – | –
